# Measurements: ChEMBL document CHEMBL4400505, “Fibroblast Growth Factor Receptor 4 (FGFR4) Selective Inhibitors as Hepatocellular Carcinoma Therapy: Advances and Prospects” (J Med Chem, 2019)
# Target: Fibroblast growth factor receptor 3 (Homo sapiens, UniProt P22607)
# Experiment: Inhibition of N-terminal GST-fused human FGFR3 cytoplasmic domain (436 to 806(end) amino acids) using CSKtide substrate incubated for 90 mins
# Chain of Fibroblast growth factor receptor 3 (P22607 whole entry, the tested form may be a part): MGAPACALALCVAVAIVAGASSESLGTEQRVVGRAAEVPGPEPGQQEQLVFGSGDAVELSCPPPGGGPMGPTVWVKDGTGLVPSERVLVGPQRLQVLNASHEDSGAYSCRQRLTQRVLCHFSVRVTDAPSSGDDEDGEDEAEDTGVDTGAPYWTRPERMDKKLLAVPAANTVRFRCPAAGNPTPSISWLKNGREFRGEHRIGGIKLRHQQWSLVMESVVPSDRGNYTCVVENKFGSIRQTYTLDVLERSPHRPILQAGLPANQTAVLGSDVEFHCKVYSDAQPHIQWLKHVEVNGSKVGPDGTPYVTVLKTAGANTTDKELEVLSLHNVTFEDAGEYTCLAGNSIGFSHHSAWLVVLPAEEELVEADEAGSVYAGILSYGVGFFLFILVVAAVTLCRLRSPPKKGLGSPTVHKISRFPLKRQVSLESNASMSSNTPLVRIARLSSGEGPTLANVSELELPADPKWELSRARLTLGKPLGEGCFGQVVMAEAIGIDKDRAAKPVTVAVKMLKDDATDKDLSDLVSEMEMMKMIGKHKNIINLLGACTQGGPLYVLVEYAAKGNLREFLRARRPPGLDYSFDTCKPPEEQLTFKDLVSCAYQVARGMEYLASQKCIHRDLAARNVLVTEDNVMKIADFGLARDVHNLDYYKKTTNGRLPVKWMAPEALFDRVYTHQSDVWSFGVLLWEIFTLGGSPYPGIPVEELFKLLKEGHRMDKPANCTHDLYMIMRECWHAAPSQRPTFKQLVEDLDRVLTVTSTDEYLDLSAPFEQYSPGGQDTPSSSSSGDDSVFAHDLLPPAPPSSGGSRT
smiles,measurement,value
C=CC(=O)Nc1cccc(C)c1Nc1ncc2cc(-c3c(Cl)c(OC)cc(OC)c3Cl)ccc2n1,IC50,150 nM
